Values joined by “and” are separate entries in the source; they are usually repeats but may differ in a detail not shown here. Equal entries are not always repeated. Where two headings read alike, the source gives them in different places.
How the values were obtained:
[1] = target: T1, hCB2R (Homo sapiens, UniProt P34972); assay: [3H]RO6957022 displacement assay; type: binding; conditions: individual replicates
T1 construct: host or cells: CHO-K1 (CHOK1_hCB2bgal, PathHunter), membranes

[2] = target: T1, hCB2R; assay: [3H]RO6957022 competition association assay; type: binding; conditions: individual replicates
[3] = target: CB2R WT (Homo sapiens, UniProt P34972); assay: [35S]GTPγS G protein activation assay, CB2R WT; type: biochemical; conditions: for Emax: CB2R WT, read-out: Emax (%); for [35S]GTPγS binding, percentage of CP55,940: individual replicates
[4] = target: CB2R-I110^3.29L (Homo sapiens, UniProt P34972, I110L); assay: [35S]GTPγS assay, CB2R I110L mutant; type: biochemical; conditions: for [35S]GTPγS binding: I1103.29L, individual replicates
[5] = target: CB2R-I110^3.29A (Homo sapiens, UniProt P34972, I110A); assay: [35S]GTPγS assay, CB2R I110A mutant; type: biochemical; conditions: for [35S]GTPγS binding: I1103.29A, individual replicates
[6] = target: CB2R-S285^7.39A (Homo sapiens, UniProt P34972, S285A); assay: [35S]GTPγS assay, CB2R S285A mutant; type: biochemical; conditions: S285A mutant; at 10 µM compared to WT; read-out: Emax (%)
[7] = target: CB2R-F117^3.36A (Homo sapiens, UniProt P34972, F117A); assay: [35S]GTPγS assay, CB2R F117A mutant; type: biochemical
[8] = target: CB2R-H95^2.65A (Homo sapiens, UniProt P34972, H95A); assay: [35S]GTPγS assay, CB2R H95A mutant; type: biochemical
[9] = target: CB2R-L185^ECL2H (Homo sapiens, UniProt P34972, L185H); assay: [35S]GTPγS assay, CB2R L185H mutant; type: biochemical; conditions: L185H mutant; at 10 µM compared to WT; read-out: Emax (%)
[10] = target: CB2R-L182^ECL2I (Homo sapiens, UniProt P34972, L182I); assay: [35S]GTPγS assay, CB2R L182I mutant; type: biochemical; conditions: L182I mutant; at 10 µM compared to WT; read-out: Emax (%)
[11] = target: CB2R-Quadruple^TM1,7 (Homo sapiens, UniProt P34972, C40S/K279T/K33Q/V36I); assay: [35S]GTPγS assay, CB2R quadruple mutant; type: biochemical; conditions: for [35S]GTPγS binding: QuadrupleTM1,7, individual replicates
[12] = target: hCB1R WT (Homo sapiens, UniProt P21554); assay: [3H]CP55,940 displacement assay, CB1R WT; type: binding
[13] = target: T2, CB1R-L359^6.51V (Homo sapiens, UniProt P21554, L359V); assay: [3H]CP55,940 displacement assay, CB1R L359V mutant; type: binding
[14] = target: T3, CB1R-H270^ECL2L (Homo sapiens, UniProt P21554, H270L); assay: [3H]CP55,940 displacement assay, CB1R H270L mutant; type: binding
[15] = target: CB1R I267ECL2L (Homo sapiens, UniProt P21554, I267L); assay: [3H]CP55,940 displacement assay, CB1R I267L mutant; type: binding
[16] = target: T4, CB1R D266ECL2E (Homo sapiens, UniProt P21554, D266E); assay: [3H]CP55,940 displacement assay, CB1R D266E mutant; type: binding
T4 construct: The WT CB1R and CB2R genes were subcloned into vector pcDNA3.1; HA signal peptide (N); expressed in transfected cells; host or cells: HEK293T (transient, membrane homogenates)

[17] = target: T2, CB1R-L359^6.51V; assay: [35S]GTPγS assay, CB1R L359V mutant; type: biochemical; conditions: CB1R L359V; 10 µM agonist
[18] = target: T3, CB1R-H270^ECL2L; assay: [35S]GTPγS assay, CB1R H270L mutant; type: biochemical; conditions: CB1R H270L; 10 µM agonist
[19] = target: T4, CB1R D266ECL2E; assay: [35S]GTPγS assay, CB1R D266E mutant; type: biochemical; conditions: CB1R D266E; 10 µM agonist
[20] = tested on: CB1R QuadrupleTM1,7; assay: [35S]GTPγS assay, CB1R quadruple mutant; type: biochemical, human; conditions: CB1R Quadruple TM1,7; 10 µM agonist

Sequence of CB2R-I110^3.29A (P34972 whole entry I110A): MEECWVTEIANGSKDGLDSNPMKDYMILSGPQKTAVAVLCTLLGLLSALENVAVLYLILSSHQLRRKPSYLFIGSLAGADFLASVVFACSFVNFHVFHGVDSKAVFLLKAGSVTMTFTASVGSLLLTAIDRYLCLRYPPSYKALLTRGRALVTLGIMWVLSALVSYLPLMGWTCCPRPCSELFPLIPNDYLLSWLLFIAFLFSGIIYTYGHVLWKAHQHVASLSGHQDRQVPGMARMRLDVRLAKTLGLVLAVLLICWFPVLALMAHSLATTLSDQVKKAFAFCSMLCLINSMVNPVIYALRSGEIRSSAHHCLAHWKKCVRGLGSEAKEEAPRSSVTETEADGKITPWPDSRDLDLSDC
Sequence of CB2R WT (P34972 whole entry): as the sequence (P34972 whole entry I110A) above, with A110I counted along it
T1 sequence (P34972 whole entry): as the sequence (P34972 whole entry I110A) above, with A110I counted along it
Sequence of CB2R-Quadruple^TM1,7 (P34972 whole entry K33Q/V36I/C40S/K279T): as the sequence (P34972 whole entry I110A) above, with K33Q, V36I, C40S, A110I, K279T counted along it
Sequence of CB1R I267ECL2L (P21554 whole entry I267L): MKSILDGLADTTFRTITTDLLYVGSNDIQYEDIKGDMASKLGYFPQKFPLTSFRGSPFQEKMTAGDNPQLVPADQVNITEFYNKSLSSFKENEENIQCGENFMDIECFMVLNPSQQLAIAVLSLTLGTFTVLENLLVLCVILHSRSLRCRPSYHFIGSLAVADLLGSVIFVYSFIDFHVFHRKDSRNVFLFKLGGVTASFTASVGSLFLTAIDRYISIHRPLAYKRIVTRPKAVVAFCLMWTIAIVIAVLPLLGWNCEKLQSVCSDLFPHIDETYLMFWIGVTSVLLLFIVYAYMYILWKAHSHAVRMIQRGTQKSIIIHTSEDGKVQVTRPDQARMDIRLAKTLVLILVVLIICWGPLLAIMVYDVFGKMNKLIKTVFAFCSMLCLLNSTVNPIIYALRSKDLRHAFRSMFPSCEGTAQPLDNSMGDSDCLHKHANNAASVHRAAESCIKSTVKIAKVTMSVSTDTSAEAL
Sequence of hCB1R WT (P21554 whole entry): as the sequence (P21554 whole entry I267L) above, with L267I counted along it
T4 sequence (P21554 whole entry D266E): as the sequence (P21554 whole entry I267L) above, with D266E, L267I counted along it
T2 sequence (P21554 whole entry L359V): as the sequence (P21554 whole entry I267L) above, with L267I, L359V counted along it
Sequence of CB2R-F117^3.36A (P34972 whole entry F117A): as the sequence (P34972 whole entry I110A) above, with A110I, F117A counted along it
Sequence of CB2R-I110^3.29L (P34972 whole entry I110L): as the sequence (P34972 whole entry I110A) above, with A110L counted along it
T3 sequence (P21554 whole entry H270L): as the sequence (P21554 whole entry I267L) above, with L267I, H270L counted along it
Sequence of CB2R-H95^2.65A (P34972 whole entry H95A): as the sequence (P34972 whole entry I110A) above, with H95A, A110I counted along it
Sequence of CB2R-L182^ECL2I (P34972 whole entry L182I): as the sequence (P34972 whole entry I110A) above, with A110I, L182I counted along it
Sequence of CB2R-S285^7.39A (P34972 whole entry S285A): as the sequence (P34972 whole entry I110A) above, with A110I, S285A counted along it
Sequence of CB2R-L185^ECL2H (P34972 whole entry L185H): as the sequence (P34972 whole entry I110A) above, with A110I, L185H counted along it

Structure (SMILES): CC(C)(C)[C@@H](CO)NC(=O)c1nn(-c2c[n+]([O-])ccn2)c2c1C[C@@H]1C[C@H]21 [APD371]
- percentage specific [3H]RO6957022 binding (displacement) ([1]; log [agonist] (M) -5): 6.59% and 5.28% and -3.87%
- percentage specific [3H]RO6957022 binding (displacement) ([1]; log [agonist] (M) -6): 1.67% and 12.98% and 3.83%
- percentage specific [3H]RO6957022 binding (displacement) ([1]; log [agonist] (M) -7): 44.82% and 59.70% and 42.04%
- percentage specific [3H]RO6957022 binding (displacement) ([1]; log [agonist] (M) -7.5): 76.53% and 76.83% and 76.84%
- percentage specific [3H]RO6957022 binding (displacement) ([1]; log [agonist] (M) -8): 102.92% and 92.08% and 89.96%
- percentage specific [3H]RO6957022 binding (displacement) ([1]; log [agonist] (M) -9): 120.09% and 94.02% and 99.12%
- percentage specific [3H]RO6957022 binding (competition association) ([2]; Time 1 min): -7.10% and 4.75% and 12.65%
- percentage specific [3H]RO6957022 binding (competition association) ([2]; Time 3 min): 13.92% and 19.07% and 26.36%
- percentage specific [3H]RO6957022 binding (competition association) ([2]; Time 5 min): 13.96% and 13.94% and 24.44%
- percentage specific [3H]RO6957022 binding (competition association) ([2]; Time 7 min): 24.14% and 47.87% and 28.29%
- percentage specific [3H]RO6957022 binding (competition association) ([2]; Time 10 min): 24.18% and 36.84% and 30.72%
- percentage specific [3H]RO6957022 binding (competition association) ([2]; Time 20 min): 40.15% and 32.14% and 34.58%
- percentage specific [3H]RO6957022 binding (competition association) ([2]; Time 30 min): 39.61% and 32.25% and 36.63%
- percentage specific [3H]RO6957022 binding (competition association) ([2]; Time 45 min): 20.89% and 29.77% and 37.77%
- percentage specific [3H]RO6957022 binding (competition association) ([2]; Time 60 min): 31.24% and 38.79% and 36.98%
- percentage specific [3H]RO6957022 binding (competition association) ([2]; Time 90 min): 31.73% and 32.90% and 39.73%
- percentage specific [3H]RO6957022 binding (competition association) ([2]; Time 120 min): 27.67% and 36.63% and 31.55%
- Emax ([3]; maximum effect at 10 µM compared to WT (Suppl. Table 6)): 109 ± 3%
- Emax ([3]; maximum effect compared to CP55,940): 134 ± 12%
- [35S]GTPγS binding, percentage of CP55,940 ([3]; log [agonist] (M) -5): 148.28% and 110.29% and 144.01%
- [35S]GTPγS binding, percentage of CP55,940 ([3]; log [agonist] (M) -6): 121.47% and 91.68% and 110.37%
- [35S]GTPγS binding, percentage of CP55,940 ([3]; log [agonist] (M) -7): 71.38% and 61.86% and 107.40%
- [35S]GTPγS binding, percentage of CP55,940 ([3]; log [agonist] (M) -8): 40.70% and 28.22% and 92.24%
- [35S]GTPγS binding, percentage of CP55,940 ([3]; log [agonist] (M) -9): -4.49% and -11.58% and 35.79%
- [35S]GTPγS binding, percentage of CP55,940 ([3]; log [agonist] (M) -10): 14.57% and -14.11% and 7.29%
- Emax ([4]; I110L mutant, at 10 µM compared to WT, read-out: Emax (%)): 101 ± 7%
- [35S]GTPγS binding ([4]; log [ligand] (M) -5): 88.75 percentage of WT and 114.10 percentage of WT and 98.70 percentage of WT
- [35S]GTPγS binding ([4]; log [ligand] (M) -6): 65.58 percentage of WT and 82.80 percentage of WT and 68.20 percentage of WT
- [35S]GTPγS binding ([4]; log [ligand] (M) -7): 37.92 percentage of WT and 48.30 percentage of WT and 43.20 percentage of WT
- [35S]GTPγS binding ([4]; log [ligand] (M) -8): 16.04 percentage of WT and -5.10 percentage of WT and 25.10 percentage of WT
- [35S]GTPγS binding ([4]; log [ligand] (M) -9): 37.59 percentage of WT and -1.70 percentage of WT and -8.60 percentage of WT
- [35S]GTPγS binding ([4]; log [ligand] (M) -10): -2.00 percentage of WT and -5.20 percentage of WT
- Emax ([5]; I110A mutant, at 10 µM compared to WT, read-out: Emax (%)): 28 ± 9%
- [35S]GTPγS binding ([5]; log [ligand] (M) -5): 8.02 percentage of WT and 49.60 percentage of WT and 23.20 percentage of WT and 29.78 percentage of WT
- [35S]GTPγS binding ([5]; log [ligand] (M) -6): -6.90 percentage of WT and 31.60 percentage of WT and 8.00 percentage of WT and 14.76 percentage of WT
- [35S]GTPγS binding ([5]; log [ligand] (M) -7): -11.72 percentage of WT and 23.80 percentage of WT and 1.10 percentage of WT and 21.50 percentage of WT
- [35S]GTPγS binding ([5]; log [ligand] (M) -8): -18.83 percentage of WT and 1.40 percentage of WT and -5.80 percentage of WT and 9.14 percentage of WT
- [35S]GTPγS binding ([5]; log [ligand] (M) -9): -17.87 percentage of WT and 6.80 percentage of WT and -8.60 percentage of WT and -1.19 percentage of WT
- [35S]GTPγS binding ([5]; log [ligand] (M) -10): -16.57 percentage of WT and -10.00 percentage of WT and -2.40 percentage of WT and -10.68 percentage of WT
- Emax [6]: 49 ± 6%
- Emax ([7]; F117A mutant, at 10 µM compared to WT, read-out: Emax (%)): 2 ± 6%
- [35S]GTPγS binding ([7]; F1173.36A, log [ligand] (M) -5, individual replicates): -3.66 percentage of WT and 14.36 percentage of WT and -4.64 percentage of WT
- drop in potency compared to WT ([8]; H95A mutant vs WT, [35S]GTPγS): 158 fold
- Emax ([8]; H95A mutant, at 10 µM compared to WT, read-out: Emax (%)): 50 ± 1%
- Emax [9]: 183 ± 16%
- Emax [10]: 17 ± 4%
- Emax ([11]; Quadruple TM1,7 mutant, at 10 µM compared to WT, read-out: Emax (%)): 35 ± 7%
- [35S]GTPγS binding ([11]; log [ligand] (M) -5): 35.07 percentage of WT and 47.26 percentage of WT and 22.67 percentage of WT
- [35S]GTPγS binding ([11]; log [ligand] (M) -6): 15.07 percentage of WT and 38.79 percentage of WT and 23.35 percentage of WT
- [35S]GTPγS binding ([11]; log [ligand] (M) -7): -3.98 percentage of WT and 20.94 percentage of WT and 22.86 percentage of WT
- [35S]GTPγS binding ([11]; log [ligand] (M) -8): 22.19 percentage of WT and 25.68 percentage of WT and 22.32 percentage of WT
- [35S]GTPγS binding ([11]; log [ligand] (M) -9): -7.96 percentage of WT and -0.64 percentage of WT and 0.99 percentage of WT
- [35S]GTPγS binding ([11]; log [ligand] (M) -10): -4.29 percentage of WT and 0.80 percentage of WT and 9.16 percentage of WT
- percentage specific [3H]CP55,940 binding ([12]; CB1R - WT, 10 µM ligand, replicates 1-3): 104.41 percentage and 153.95 percentage and 99.24 percentage
- Displacement (%) of [3H]CP55,940 ([12]; CB1R WT, 10 µM compound): -19 ± 17%
- Displacement (%) of [3H]CP55,940 ([13]; CB1R L359V, 10 µM compound): 18 ± 9%
- percentage specific [3H]CP55,940 binding ([13]; CB1R L3596.51V, 10 µM ligand, replicates 1-3): 78.52 percentage and 68.29 percentage and 98.34 percentage
- percentage specific [3H]CP55,940 binding ([14]; CB1R H270ECL2L, 10 µM ligand, replicates 1-3): 89.52 percentage and 87.15 percentage and 98.55 percentage
- Displacement (%) of [3H]CP55,940 ([14]; CB1R H270L, 10 µM compound): 8 ± 3%
- percentage specific [3H]CP55,940 binding ([15]; CB1R I267ECL2L, 10 µM ligand, replicates 1-3): 153.09 percentage and 95.47 percentage and 123.57 percentage
- Displacement (%) of [3H]CP55,940 ([15]; CB1R I267L, 10 µM compound): -24 ± 17%
- Displacement (%) of [3H]CP55,940 ([16]; CB1R D266E, 10 µM compound): 12 ± 7%
- percentage specific [3H]CP55,940 binding ([16]; CB1R D266ECL2E, 10 µM ligand, replicates 1-3): 74.46 percentage and 89.45 percentage and 99.44 percentage
- Agonist-mediated activation [17]: 1.1 ± 0.1 fold over its basal
- Agonist-mediated activation [18]: 1.1 ± 0.0 fold over its basal
- Agonist-mediated activation [19]: 0.9 ± 0.1 fold over its basal
- Agonist-mediated activation [20]: 1.1 ± 0.0 fold over its basal
